In the SangsterLogP compilation one finds logP data, which are given here for 24 compounds.

The structures appear in SMILES notation.

As usually defined, the logP is the decadic logarithm of the partition coefficient of the neutral form, usually between octanol and water. Read a low logP as lower lipophilicity.

A short description of the data set: method code SF-AS, from DOI: 10.1021/jm00294a001, PMID: 5116225.

In turn, `C=C1C(=O)OC2C1C(OC(=O)C(C)=CC)CC(O)(CCl)C1C(OC(C)=O)C=C(C)C21O` (centres undefined) returned a logP of 1.42.

As for `C=C1C(=O)OC2C=C(C)C3C(OC(C)=O)CC(O)C3CC12` (centres undefined), the lipophilicity (logP) was determined as 1.09.

The compound `C=C1C(=O)OC2C=C(C)C(OC(C)=O)CC(O)C(C)=CC(OC(=O)C(C)=CC)C12` (centres undefined) gave a logP of 1.16.

`C=C1C(=O)OC2C1CCC(C)C1C=CC(=O)C12C` (centres undefined): the logP turned out to be 1.03.

With `C=C1C(=O)OC2C1C(O)CC(C)C1CCC(=O)C12C` (centres undefined), the logP amounted to 0.23.

`C=C1C(=O)O[C@H]2[C@H]1[C@@H](OC(=O)C=C(C)C)CC1=C[C@@H](C[C@@]3(C)O[C@H]23)OC1=O` came in with a logP of 1.05.

As for `C=C1C(=O)O[C@@H]2/C=C(/C)C[C@H](O)/C=C(/C)CC[C@@H]12`, the logP is 1.23.

For `C=C1C(=O)OC2C=C(C)C3(O)C=CC(C)(CC(OC(=O)C(=CC)COC(C)=O)C12)O3` (centres undefined), the logP stood at 1.19.

For the compound `C=C1C(=O)O[C@H]2[C@H]1[C@H](OC(=O)/C(C)=C\C)C[C@]1(CO1)[C@@H]1[C@H](OC(C)=O)C=C(C)[C@]21O`, the logP came out at 0.76.

Turning to `C=C1C(=O)OC2C=C(C)C(O)CC=C(C)CCC12` (centres undefined), the logP is 1.4.

For the compound `C=C1C(=O)O[C@@H]2[C@H]1CC[C@H](C)[C@@H]1C[C@@H](O)C(=O)[C@@]21C`, the logP turned out to be 0.66.

Consider `C=CC12COC(=O)C(=C)C1C(O)C1C(=C)C(=O)OC1C2` (centres undefined), for which the logP is -0.14.

Compound `C=C[C@@]12COC(=O)C(=C)[C@@H]1[C@H]1OC(=O)C(=C)[C@@H]1[C@@H](O)C2` gave a logP of 0.31.

`C=C1C(=O)OC2C1C(OC(=O)C(C)=CC)CC(=C)C1C(O)C3OC3(C)C21O` (centres undefined) registered a logP of 1.69.

`C=C(C)C(=O)O[C@H]1CC2=C[C@@H](C[C@@]3(C)O[C@@H]3[C@H]3OC(=O)C(=C)[C@@H]31)OC2=O`: the logP is 0.69.

The compound `C=C1C(=O)OC2CC(C)=CCC(OC(C)=O)C(C)=CC(OC(C)=O)C12` (centres undefined) returned a logP of 1.14.

In turn, `C=C1C(=O)O[C@H]2CC3=C[C@@H](C[C@@]4(C)O[C@@H]4[C@@H](O)[C@H]12)OC3=O` registered a log partition coefficient (logP) of -0.64.

`C=CC12COC(=O)C(=C)C1C1OC(=O)C(=C)C1C(OC(C)=O)C2` (centres undefined) showed a logP of 0.79.

Regarding `C=C1C(=O)O[C@@H]2[C@H]1CC[C@H](C)[C@]1(O)CCC(=O)[C@@]21C`, the logP was determined as 0.83.

For `C=CC12COC(=O)C(=C)C1C(OC(C)=O)C1C(=C)C(=O)OC1C2` (centres undefined), the logP stood at 0.25.

`C=C1C(=O)OC2C1CCC(C)C1(O)C=CC(=O)C21C` (centres undefined): the logP worked out at 0.77.

Take `C=C[C@@]12COC(=O)C(=C)[C@@H]1[C@H]1OC(=O)C(=C)[C@@H]1[C@@H](OC(=O)C(=C)C)C2`: the logP was found to be 1.56.

The compound `C=C1C(=O)O[C@@H]2C[C@@H](C)[C@@H]3C=CC(=O)[C@@]3(C)[C@@H](O)[C@H]12` gave a logP of 0.87.

As for `C=C1C(=O)O[C@H]2C[C@@H](C)[C@@H]3C=CC(=O)[C@@]3(C)C[C@H]12`, the logP came out at 1.17.
